Laboratory results from ChEMBL document CHEMBL3045479, “Synthesis and anti-cancer activity of some novel C-17 analogs of ursolic and oleanolic acids” (2013).
Structures can show the parent of a compound that is named as a salt.

Tests used:
Format in all cases: functional
THP-1 = experiment: Growth inhibition of Homo sapiens (human) THP1 cells at 10 uM after 48 hr by SRB assay; settings: THP-1, 48 h, read-out: GI
PC-3 = experiment: Growth inhibition of Homo sapiens (human) PC3 cells at 10 uM after 48 hr by SRB assay; settings: PC-3, 48 h, read-out: GI
A549 = experiment: Growth inhibition of Homo sapiens (human) A549 cells at 10 uM after 48 hr by SRB assay; settings: A549, 48 h, read-out: GI
COLO 205 = experiment: Growth inhibition of Homo sapiens (human) COLO205 cells at 10 uM after 48 hr by SRB assay; settings: COLO 205, 48 h, read-out: GI
IMR-32 = experiment: Growth inhibition of Homo sapiens (human) IMR32 cells at 10 uM after 48 hr by SRB assay; settings: IMR-32, 48 h, read-out: GI
SiHa = experiment: Growth inhibition of Homo sapiens (human) SiHa cells at 10 uM after 48 hr by SRB assay; settings: read-out: GI
HeLa = experiment: Growth inhibition of Homo sapiens (human) HeLa cells at 10 uM after 48 hr by SRB assay; settings: read-out: GI
SW-620 = experiment: Growth inhibition of Homo sapiens (human) SW620 cells at 10 uM after 48 hr by SRB assay; settings: SW-620, 48 h, read-out: GI

| SMILES | inhibition of growth at 10 µM (THP-1) [%] | inhibition of growth at 10 µM (PC-3) [%] | inhibition of growth at 10 µM (A549) [%] | inhibition of growth at 10 µM (COLO 205) [%] | inhibition of growth at 10 µM (IMR-32) [%] | inhibition of growth at 10 µM (SiHa) [%] | inhibition of growth at 10 µM (HeLa) [%] | inhibition of growth at 10 µM (SW-620) [%] |
| --- | --- | --- | --- | --- | --- | --- | --- | --- |
| C[C@H]1[C@H](C)CC[C@]2(C(=O)OCCBr)CC[C@]3(C)C(=CC[C@@H]4[C@@]5(C)CC[C@H](O)C(C)(C)[C@@H]5CC[C@]43C)[C@H]12 | 54 | 23 | 28 | 12 | – | – | – | – |
| CC(C)=CCOC(=O)[C@]12CC[C@@H](C)[C@H](C)[C@H]1C1=CC[C@@H]3[C@@]4(C)CC[C@H](O)C(C)(C)[C@@H]4CC[C@@]3(C)[C@]1(C)CC2 | – | – | 12 | 0 | 19 | 21 | 24 | 2 |
| C=CCOC(=O)[C@]12CCC(C)(C)C[C@H]1C1=CC[C@@H]3[C@@]4(C)CC[C@H](O)C(C)(C)[C@@H]4CC[C@@]3(C)[C@]1(C)CC2 [3BETA-HYDROXY-OLEAN-12-EN-28-ALLYLATE] | – | – | 31 | 0 | 16 | 15 | 0 | 1 |
| COC(=O)COC(=O)[C@]12CCC(C)(C)C[C@H]1C1=CC[C@@H]3[C@@]4(C)CC[C@H](O)C(C)(C)[C@@H]4CC[C@@]3(C)[C@]1(C)CC2 [3BETA-HYDROXY-OLEAN-12-EN-28-METHYL ACETOACETATE] | – | – | 25 | 2 | 18 | 19 | 13 | 4 |
| CC(C)=CCOC(=O)[C@]12CCC(C)(C)C[C@H]1C1=CC[C@@H]3[C@@]4(C)CC[C@H](O)C(C)(C)[C@@H]4CC[C@@]3(C)[C@]1(C)CC2 [3BETA-HYDROXY-OLEAN-12-EN-28-PRENYLATE] | – | – | 25 | 0 | 16 | 36 | 5 | 13 |
| C#CCOC(=O)[C@]12CCC(C)(C)C[C@H]1C1=CC[C@@H]3[C@@]4(C)CC[C@H](O)C(C)(C)[C@@H]4CC[C@@]3(C)[C@]1(C)CC2 [3BETA-HYDROXY-OLEN-12-EN-28-PROPARGYLATE] | – | – | 20 | 15 | 16 | 30 | 27 | 2 |
| C=CCOC(=O)[C@]12CC[C@@H](C)[C@H](C)[C@H]1C1=CC[C@@H]3[C@@]4(C)CC[C@H](O)C(C)(C)[C@@H]4CC[C@@]3(C)[C@]1(C)CC2 [3BETA-HYDROXY-URS-12-EN-28-ALLYLATE] | – | – | 19 | 0 | 20 | 25 | 0 | 0 |
| COC(=O)COC(=O)[C@]12CC[C@@H](C)[C@H](C)[C@H]1C1=CC[C@@H]3[C@@]4(C)CC[C@H](O)C(C)(C)[C@@H]4CC[C@@]3(C)[C@]1(C)CC2 [3BETA-HYDROXY-URS-12-EN-28-METHYL ACETOACETATE] | – | – | 23 | 0 | 18 | 24 | 11 | 0 |
| C#CCOC(=O)[C@]12CC[C@@H](C)[C@H](C)[C@H]1C1=CC[C@@H]3[C@@]4(C)CC[C@H](O)C(C)(C)[C@@H]4CC[C@@]3(C)[C@]1(C)CC2 [3BETA-HYDROXY-URS-12-EN-28-PROPARGYLATE] | – | – | 24 | 0 | 11 | 4 | 0 | 0 |
| C[C@H]1[C@H](C)CC[C@]2(C(=O)OCCCCBr)CC[C@]3(C)C(=CC[C@@H]4[C@@]5(C)CC[C@H](O)C(C)(C)[C@@H]5CC[C@]43C)[C@H]12 [BROMOBUTYL-3BETA-HYDROXY-URS-12-EN-28-OATE] | 7 | 23 | 2 | 10 | – | – | – | – |
| C[C@H]1[C@H](C)CC[C@]2(C(=O)OCCCCCCCCCCCCBr)CC[C@]3(C)C(=CC[C@@H]4[C@@]5(C)CC[C@H](O)C(C)(C)[C@@H]5CC[C@]43C)[C@H]12 [BROMODODECYL-3BETA-HYDROXY-URS-12-EN-28-OATE] | 0 | 0 | 0 | 0 | – | – | – | – |
| C[C@H]1[C@H](C)CC[C@]2(C(=O)OCCCCCCBr)CC[C@]3(C)C(=CC[C@@H]4[C@@]5(C)CC[C@H](O)C(C)(C)[C@@H]5CC[C@]43C)[C@H]12 [BROMOHEXYL-3BETA-HYDROXY-URS-12-EN-28-OATE] | 3 | 0 | 0 | 0 | – | – | – | – |
| COc1cccc2c1C(=O)c1c(O)c3c(c(O)c1C2=O)C[C@@](O)(C(=O)CO)C[C@@H]3O[C@H]1C[C@H](N)[C@H](O)[C@H](C)O1 [DOXORUBICIN HYDROCHLORIDE] | – | – | 50 | 89 | 82 | – | 58 | 38 |
| O=c1[nH]cc(F)c(=O)[nH]1 [FLUOROURACIL] | 69 | – | 30 | 47 | 29 | 38 | 36 | 42 |
| COC(=O)[C@]12CCC(C)(C)C[C@H]1C1=CC[C@@H]3[C@@]4(C)CC[C@H](O)C(C)(C)[C@@H]4CC[C@@]3(C)[C@]1(C)CC2 [METHYL OLEANOLATE] | – | – | 48 | 0 | 55 | 21 | 18 | 8 |
| COC(=O)[C@]12CC[C@@H](C)[C@H](C)[C@H]1C1=CC[C@@H]3[C@@]4(C)CC[C@H](O)C(C)(C)[C@@H]4CC[C@@]3(C)[C@]1(C)CC2 [METHYL URSOLATE] | – | – | 20 | 0 | 11 | 21 | 2 | 0 |
| CO[C@@]12[C@H](COC(N)=O)C3=C(C(=O)C(C)=C(N)C3=O)N1C[C@@H]1N[C@@H]12 [MITOMYCIN] | – | 61 | – | – | – | – | – | – |
| CC1(C)CC[C@]2(C(=O)O)CC[C@]3(C)C(=CC[C@@H]4[C@@]5(C)CC[C@H](O)C(C)(C)[C@@H]5CC[C@]43C)[C@@H]2C1 [OLEANOLIC_ACID] | – | – | 24 | 33 | 22 | 3 | 26 | 24 |
| CC(=O)O[C@H]1C(=O)[C@@]2(C)[C@H]([C@H](OC(=O)c3ccccc3)[C@]3(O)C[C@H](OC(=O)[C@H](O)[C@@H](NC(=O)c4ccccc4)c4ccccc4)C(C)=C1C3(C)C)[C@]1(OC(C)=O)CO[C@@H]1C[C@@H]2O [PACLITAXEL] | – | – | 44 | 67 | 30 | – | 45 | 36 |
